Series [1] in a line: in vitro. Conditions: human, primary normal peripheral blood lymphocyte (PBL) cells.
Series [2] relates to CLL cells. The series can be described thus: MTT cytotoxicity assay, CLL cells. It counts as cell-based. Conditions: Homo sapiens, CLL cell, 72 hours, duplicate. The protocol: The compounds of the invention were screened for CLL apoptotic activity by flow cytometry and a MTT-based assay. […] Primary PBL cells were acquired from the San Diego Blood Bank, San Diego, Calif. DiOC6 and PI dyes were obtained from Molecular Probes, Eugene, Oreg. Otherwise, unless indicated, all other reagents were purchased from Sigma (St. Louis, Mo.), and all test compounds were dissolved in sterile DMSO.
To get a more concise measure of the EC50 and confirm the flow cytometry results, a MTT (3-(4,5-dimethylthiazol-2-yl)-2,5-diphenyl tertrazolium bromide) assay using a procedure similar to that described by Mosmann, T., J Immunol Methods. 1983, 65, 55-63, was performed on all analogs. This method provided a larger number of datapoints so that a value for the EC50 could be extrapolated.
This assay was based on a procedure described by Mosmann. Briefly, in each well of a 96-well plate, 5×10^5 CLL cells were suspended in 100 μL of […] medium containing 10% FBS, 100 μg/mL penicillin, and 100 μg/mL streptomycin. Serial dilution of test compounds were then performed in duplicate across the plate to establish a concentration gradient from 0 to 1000 μM. After 72 hours of incubation at 37° C., the cells were incubated for 6 more hours in the presence of 20 μL of 5 mg/mL MTT (3-(4,5-dimethylthiazol-2-yl)-2,5-diphenyl tertrazolium bromide) before dissolving the resulting crystals in 50 μL lysis buffer (15% SDS, 15 mM HCl) overnight. Afterwards, the absorbance of each well was measured at […] in a Finstrument Microplate Reader, and the data was analyzed by Graphpad Prism Software, version 2.0b.
For orientation: Tetrazolium dyes change colour on reduction, which living cells bring about.

Series [3] concerns B-cell CLL cells. Conditions: cited from earlier work.
Series [4] concerns prostate cancer. Conditions: TRAMP mouse; cited from earlier work.
In series [5] the test system is Mcl-1. The series can be described thus: Mcl-1 level in LNCaP cells, SDS-PAGE immunoblot. It counts as cell-based. Conditions: for effect on the etodolac-induced fall in Mcl-1 levels: co-incubation with 5.0 μM MG-132 or pre-incubation with Z-VAD, LNCaP.
Series [6] has as its system Bag-1. The series can be described thus: Bag-1 level in LNCaP cells, SDS-PAGE immunoblot. It counts as cell-based. Conditions: co-incubation with 5.0 μM MG-132 or pre-incubation with Z-VAD.
Series [7] concerns MDA-MB-231 (Breast). The series can be described thus: Cytotoxicity by MTT assay, MDA-MB-231. It counts as cell-based. Conditions: three days continuous exposure.
For series [8] the following is noted: 200 mg dose, six elderly patients; cited from earlier work.
The subject of series [9] is prostate cancer tissue. The series can be described thus: Prostatectomy tissue samples incubated 72 hours, histology. The class given is cell-based. The source says:
The tissues were next fixed in 4% paraformaldehyde in PBS, embedded in paraffin, sectioned and stained with hematoxylin and eosin.

Series [10] deals with CLL cells. The series can be described thus: Viability of CLL cells, erythrocin B exclusion assay.
The test system of series [11] is HCT-116 (Colon). The series can be described thus: Cytotoxicity by MTT assay, HCT-116. Conditions: three days continuous exposure. It counts as cell-based.
The subject of series [12] is OVCAR-3 (Ovarian). The series can be described thus: Cytotoxicity by MTT assay, OVCAR-3. It counts as cell-based. Conditions: three days continuous exposure.
Series [13] has as its system Alva-31 (Prostate). The series can be described thus: Cytotoxicity by MTT assay, Alva-31. It counts as cell-based. Conditions: three days continuous exposure.
In series [14] the test system is A549 (Lung). The series can be described thus: Cytotoxicity by MTT assay, A549. Conditions: three days continuous exposure. The class given is cell-based.
Series [15] relates to adjuvant polyarthritis. Conditions: reduction in paw volume, prostaglandin synthetase inhibitory activity; cited from earlier work.
Series [16] has as its system LNCaP-FGC (Prostate). The series can be described thus: Cytotoxicity by MTT assay, LNCaP-FGC. It counts as cell-based. Conditions: three days continuous exposure.
Series [17] deals with PC-3 (Prostate). The series can be described thus: Cytotoxicity by MTT assay, PC-3. It counts as cell-based. Conditions: three days continuous exposure.
For series [18], the target named is T1, human recombinant COX-2 (Homo sapiens, UniProt P35354).
T1 construct: MDS Pharma Services (performed the assay); host or cells: Spodoptera frugiperda insect cells
T1 sequence (P35354 18-604): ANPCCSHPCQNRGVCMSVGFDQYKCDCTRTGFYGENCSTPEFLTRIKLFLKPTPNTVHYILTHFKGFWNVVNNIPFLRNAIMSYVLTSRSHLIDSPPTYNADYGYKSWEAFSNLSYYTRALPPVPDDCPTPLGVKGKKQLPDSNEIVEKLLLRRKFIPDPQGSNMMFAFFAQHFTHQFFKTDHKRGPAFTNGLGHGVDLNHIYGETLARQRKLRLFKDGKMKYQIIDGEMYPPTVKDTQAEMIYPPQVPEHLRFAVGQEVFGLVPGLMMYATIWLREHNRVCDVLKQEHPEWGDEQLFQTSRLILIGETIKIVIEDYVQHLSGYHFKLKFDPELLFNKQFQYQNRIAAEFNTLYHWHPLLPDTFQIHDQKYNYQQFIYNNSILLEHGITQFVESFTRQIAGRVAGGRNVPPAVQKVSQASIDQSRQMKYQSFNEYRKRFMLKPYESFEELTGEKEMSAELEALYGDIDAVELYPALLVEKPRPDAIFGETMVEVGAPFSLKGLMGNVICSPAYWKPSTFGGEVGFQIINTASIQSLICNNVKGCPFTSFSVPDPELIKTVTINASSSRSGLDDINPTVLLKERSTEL
The series can be described thus: COX-2 enzyme assay (PGE2 enzyme immunoassay). The class given is biochemical. Conditions: duplicate. The protocol: (§1) Compounds active in both the flow cytometry and MTT experiments were then tested for COX inhibition at 50 μM in an enzyme assay using COX-1 isolated from human platelets and human recombinant COX-2 purified from insect cells (Spodoptera frugiperda), as described by Riendeau et. al., Br J Pharmacol. 1997, 121, 105-117; Riendeau et. al., Can J Physiol Pharmacol. 1997, 75, 1088-1095; and Warner et. al. Proc Natl Acad Sci. 1999, 96, 7563-7568. These assays were performed by MDS Pharma Services, Bothell, Wash. The compounds were incubated in duplicate with COX-1 isolated from human platelets and human recombinant COX-2 purified from insect cells (Spodoptera frugiperda). Enzyme immunoassay quantification of prostaglandin E2 production from arachidonic acid in the presence (50 μM) and absence of test compounds was used to determine the percentage of COX inhibition.

Series [19] has as its target T2, COX-1 isolated from human platelets (Homo sapiens, UniProt P23219).
T2 construct: COX-1 isolated from human platelets; tissue MDS Pharma Services; host or cells: human platelets
The series can be described thus: COX-1 enzyme assay (PGE2 enzyme immunoassay). Conditions: duplicate. The class given is biochemical. How it is done: as §1

Residues, ends and D or L forms follow the SMILES beside them. *: point of attachment. Cbz = O=C(OCc1ccccc1)*; CH2F = FC*

T2 sequence (P23219 24-599): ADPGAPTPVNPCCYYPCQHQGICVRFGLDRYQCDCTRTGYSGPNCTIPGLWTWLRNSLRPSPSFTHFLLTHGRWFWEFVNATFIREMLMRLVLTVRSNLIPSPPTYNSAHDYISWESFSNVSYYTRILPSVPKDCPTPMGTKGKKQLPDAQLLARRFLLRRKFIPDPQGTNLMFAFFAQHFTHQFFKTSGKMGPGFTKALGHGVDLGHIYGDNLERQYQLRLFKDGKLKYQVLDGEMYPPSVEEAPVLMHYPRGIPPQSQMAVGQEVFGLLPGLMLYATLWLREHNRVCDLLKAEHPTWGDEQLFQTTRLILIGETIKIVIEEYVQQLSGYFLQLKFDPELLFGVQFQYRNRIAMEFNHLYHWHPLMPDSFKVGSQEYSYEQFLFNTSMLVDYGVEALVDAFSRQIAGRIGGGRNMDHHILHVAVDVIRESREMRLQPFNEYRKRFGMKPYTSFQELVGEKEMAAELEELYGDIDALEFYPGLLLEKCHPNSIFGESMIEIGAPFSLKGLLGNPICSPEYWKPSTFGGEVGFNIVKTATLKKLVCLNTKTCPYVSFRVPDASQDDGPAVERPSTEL

Usually CC50 stands for the concentration giving 50% cytotoxicity. Read a high CC50 as lower toxicity to the cells. One may read the EC50 as the concentration that produces a half-maximal response. The low end stands for higher potency in that assay, the high end for lower potency in that assay. In turn, `CCc1cccc2c3c([nH]c12)C(CC)(CCOC(C)=O)OCC3` (stereo not shown) [Compound 10, Acetic acid-2-(1,8-diethyl-1,3,4,9-tetrahydropyrano[3,4-b]indol-1-yl)-ethyl ester] gave a CC50 at 48 h in series [1] of 100 to 250 µM. The compound further yielded an EC50 in series [2] of 686 µM.

As to `O=C(O)c1ccccc1O` [salicylate], in series [3], the “viability of B-cell CLL cells in vitro” value is on record as “reduced the viability”.

Regarding `CC(=O)Oc1ccccc1C(=O)O` [aspirin], in series [3], the “viability of B-cell CLL cells in vitro” value is reported as “reduced the viability”.

The term melting point denotes the temperature, or range, at which the solid turns liquid. The compound `CCc1cccc2c3c([nH]c12)C(CC)(CC)OCC3` [Compound 5, 1,1,8-Triethyl-1,3,4,9-tetrahydropyrano[3,4-b]indole] showed a melting point of 133 to 134 °C. In addition, in [2], the 50% effective concentration (EC50) was > 1000 µM.

In the case of `C[C@@H](C(=O)O)c1ccc(-c2ccccc2)c(F)c1` [R-flurbiprofen], the “progression of prostate cancer” value in series [4] is reported as “inhibited progression of prostate cancer”.

Compound `CCc1cccc2c3c([nH]c12)C(CC)(CC=N)OCC3` (stereo not shown) [Compound 7, 2-(1,8-Diethyl-1,3,4,9-tetrahydropyrano[3,4-b]indol-yl)-ethylideneamine] gave a half-maximal cytotoxic concentration (CC50) at 48 h in series [1] of 250 to 500 µM. The compound further showed a concentration for a half-maximal effect (EC50) in series [2] of 714 µM.

Regarding `CC(C)C[C@@H](C=O)NC(=O)[C@H](CC(C)C)NC(=O)[C@H](CC(C)C)NC(=O)OCc1ccccc1` [MG-132] (Cbz-Leu-Leu-Leu-aldehyde), the “effect on the etodolac-induced fall in Mcl-1 levels” value in series [5] is recorded as “prevented”. In series [6], the “effect on the etodolac-induced fall in Bag-1 levels” value was “prevented”.

As for `CCc1cccc2c3c([nH]c12)C(CC)(CCF)OCC3` (stereo not shown) [Compound 3, 1,8-Diethyl-1-(2-fluoroethyl)-1,3,4,9-tetrahydropyrano[3,4-b]indole], in series [1], the 50% cytotoxic concentration (CC50) at 48 h is < 100 µM. This compound also displayed an EC50 in [2] of 767 µM.

Regarding `CCc1cccc2c3c([nH]c12)C(CC)(CC=O)OCC3` (stereo not shown) [Compound 8, (1,8-Diethyl-1,3,4,9-tetrahydropyrano[3,4-b]indol-1-yl)-acetaldehyde], the CC50 at 48 h in series [1] is < 100 µM. For the same compound, the half-maximal effective concentration (EC50) in series [2] was 111 µM.

As usually defined, the IC50 is the point on the concentration scale where inhibition reaches its midpoint. A lower IC50 goes with greater potency in that assay. Consider `CCc1cccc2c3c([nH]c12)[C@](CC)(CC(=O)O)OCC3` [S-etodolac], for which the IC50 is > 1000 µM in series [7]; 420 ± 50 µM in series [11]; > 1000 µM in series [12]; > 1000 µM in [13]; > 1000 µM in [14]; 220 ± 20 µM in series [16]. The same compound registered an IC50 in series [17] of 800 µM. In [8], the “maximum concentration relative to the R-enantiomer” value is 5 fold lower. In addition, in [9], the “activity in prostatectomy samples” value is reported as “active”. Further, the “toxicity of the enantiomers to CLL cells” value in [10] (RPMI 1640 with 10% autologous plasma, FIG. 5) is given as “equivalently cytotoxic”. For the same compound, the anti-inflammatory activity entry in [15] is “almost all of the anti-inflammatory activity of the racemate”. Moreover, in series [5], the “Mcl-1 degradation by the enantiomers” value is listed as “induced Mcl-1 degradation at equivalent concentrations”.

In the case of `CCc1cccc2c3c([nH]c12)C(CC)(CCOC)OCC3` (stereo not shown) [Compound 2, 1,8-Diethyl-1-(2-methoxyethyl)-1,3,4,9-tetrahydropyrano[3,4-b]indole], the CC50 at 48 h in [1] was > 750 µM. Moreover, the EC50 in series [2] is > 1000 µM.

As to `CCc1cccc2c3c([nH]c12)C(CC)(CC(O)O)OCC3` (stereo not shown) [Compound 11, 2-(1,8-Diethyl-1,3,4,9-tetrahydropyrano[3,4-b]indol-1-yl)-ethane-1,1-diol], the melting point fell in the range of 158 to 159 °C. This compound had an EC50 in [2] of 416 µM.

The compound `CCc1cccc2c3c([nH]c12)C(CC)(CC(C)O)OCC3` (stereo not shown) [Compound 12, 1-(1,8-Diethyl-1,3,4,9-tetrahydropyrano[3,4-b]indol-1-yl)-propan-2-ol] came in with a 50% cytotoxic concentration (CC50) at 48 h in series [1] of 250 to 500 µM. This compound also came in with an EC50 in [2] of 272 µM.

The compound `CCc1cccc2c3c([nH]c12)C(CC)(CCOCSC)OCC3` (stereo not shown) [Compound 9, 1,8-Diethyl-1-(2-methylsufanylmethoxyethyl)-1,3,4,9-tetrahydropyrano[3,4-b]indole] yielded an EC50 in series [2] of 324 µM.

As for `CCc1cccc2c3c([nH]c12)C(CC)(CC(C)=O)OCC3` (stereo not shown) [Compound 13, 1-(1,8-Diethyl-1,3,4,9-tetrahydropyrano[3,4-b]indol-1-yl)-propan-2-one], the CC50 at 48 h in series [1] is > 750 µM. In addition, the concentration for a half-maximal effect (EC50) in series [2] is > 1000 µM.

With `Nc1nc(F)nc2c1ncn2[C@@H]1O[C@H](CO)[C@@H](O)[C@@H]1O` [fludarabine], the “cytotoxic effect on CLL cells, either drug alone” value in series [10] (fludarabine 10 nM or etodolac 10 μM alone, 48 hours, FIG. 3) is reported as “ineffective”.

Usually inhibition stands for the share of the control response that was lost under treatment. In the case of `CCc1cccc2c3c([nH]c12)C(CC)(CCO)OCC3` (stereo not shown) [Compound 1, 2-(1,8-Diethyl-1,3,4,9-tetrahydropyrano[3,4-b]indol-1-yl)-ethanol], in [1], the half-maximal cytotoxic concentration (CC50) at 48 h is ~500 µM. The inhibition at 50 µM in series [18] and in series [19] was 0% each time. Besides, in series [2], the response was half-maximal at 178 µM (EC50).

Consider `CCc1cccc2c3c([nH]c12)C(CC)(CC(N)=O)OCC3` (stereo not shown) [Compound 6, 2-(1,8-Diethyl-1,3,4,9-tetrahydropyrano[3,4-b]indol-1-yl)-acetamide], for which the CC50 at 48 h in series [1] was > 500 µM. In addition, the inhibition at 50 µM worked out at 69% in series [18] and 36% in series [19]. The midpoint of the response in [2], the EC50, lay at 258 µM.

`CC(NC(=O)C(NC(=O)OCc1ccccc1)C(C)C)C(=O)NC(CC(=O)O)C(=O)CF` (stereo not drawn) [Z-VAD] (Cbz-Val-Ala-Asp-CH2F; configuration not given here): in series [5], the “effect on the etodolac-induced fall in Mcl-1 levels” value is reported as “did not prevent”. Further, the “effect on the etodolac-induced fall in Bag-1 levels” value in series [6] is listed as “did not prevent”.

Consider `CCc1cccc2c3c([nH]c12)C(CC)(CCCl)OCC3` (stereo not shown) [Compound 4, 1-(2-Chloroethyl)-1,8-diethyl-1,3,4,9-tetrahydropyrano[3,4-b]indole], for which the CC50 at 48 h in series [1] is < 100 µM. This compound also gave a half-maximal effective concentration (EC50) in [2] of 572 µM.

The values above are taken from US7361680B2, “Indole compounds useful for the treatment of cancer” (The Regents of the University of California, priority 1999, dated 2008).
